In US6596696B1, “Malto-oligosaccharide derivatives and uses thereof” (Kikkoman Corporation, priority 1999, dated 2003):

What was measured:
[1] = biological target: T1, α-amylase derived from human pancreatic juice (HPA) (Homo sapiens, UniProt P04746); assay: In vitro amylase activity inhibition test, HPA (blue starch, Neo Amylase Test); format: biochemical; details: 37° C., 30 minutes, blue starch substrate
T1 construct: purchased International Reagents Corp. Japan Calibzyme AMY
T1 sequence (P04746 16-511): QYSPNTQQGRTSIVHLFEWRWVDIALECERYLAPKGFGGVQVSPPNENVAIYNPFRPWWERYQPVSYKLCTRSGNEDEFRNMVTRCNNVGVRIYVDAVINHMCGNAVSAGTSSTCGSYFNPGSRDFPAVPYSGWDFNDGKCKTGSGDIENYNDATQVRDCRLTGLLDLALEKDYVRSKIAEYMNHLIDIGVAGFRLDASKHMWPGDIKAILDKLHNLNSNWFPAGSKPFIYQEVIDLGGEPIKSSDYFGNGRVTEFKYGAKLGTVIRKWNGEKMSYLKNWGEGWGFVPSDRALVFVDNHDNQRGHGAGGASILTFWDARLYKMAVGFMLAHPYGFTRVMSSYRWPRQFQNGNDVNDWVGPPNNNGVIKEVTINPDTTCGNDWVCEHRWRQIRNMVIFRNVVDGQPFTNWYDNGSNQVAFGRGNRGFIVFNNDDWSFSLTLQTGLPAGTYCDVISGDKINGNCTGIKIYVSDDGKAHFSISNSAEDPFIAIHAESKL
Procedure: (§1) (1) Preparation of Human α-amylase Solution
(§2) Commercial HPA and HSA were dissolved in purified water to a concentration of 350 IU/1 to prepare an α-amylase solution. As commercial HPA and HSA, “Calibzyme AMY” (available from International Reagents Corp. Japan) was used. The α-amylase activity was determined according to the calibration curve of a commercial α-amylase determining reagent “Neo Amylase Test ┌FDAIICHI┘” (available from Daiichi Pure Chemicals Co., Ltd., Japan).
(§3) (2) Preparation of Inhibitor Solution
(§4) DOG2Az obtained in Example 1, GDOG2Az obtained in Example 2 and comparative G2Az (6^3-position non-modified maltoligosaccharide derivative disclosed in JP-A-9-278789) represented by the following formula
(§5) (3) were diluted with distilled water so that the final concentration would become 5 to 0.0001 mM. [drawing 4]
(§6) (3) Determination of Human α-amylase Inhibitory Activity (IC50) of Inhibitor Solution
(§7) 3.0 ml of distilled water, 1.0 ml of the inhibitor solution, Neo Amylase Test ┌DAIICHI┘ (produced by Daiichi Pure Chemicals Co., Ltd., Japan) and one tablet of blue starch were added to 100 μl of HPA or HSA solution, and the mixture was stirred by a mixer for about 10 seconds and then heated at 37° C. for 30 minutes. Thereafter, 1.0 ml of 0.5 N sodium hydroxide solution was added and the mixture was further stirred. Then the reaction was stopped, the solution was centrifuged (1,500 G, 5 minutes) and absorbance of the supernatant at 620 nm was measured. In blank, distilled water was used in place of the inhibitor solution. “IC50” indicates the final concentration (mM) of the inhibitor material required for inhibiting the activity of HPA or HSA solution by 50%.

[2] = biological target: T2, α-amylase derived from human salivary gland (HSA) (Homo sapiens, UniProt P0DUB6); assay: In vitro amylase activity inhibition test, HSA (blue starch, Neo Amylase Test); format: biochemical; details: 37° C., 30 minutes, blue starch substrate
T2 construct: purchased International Reagents Corp. Japan Calibzyme AMY
T2 sequence (P0DUB6 16-511): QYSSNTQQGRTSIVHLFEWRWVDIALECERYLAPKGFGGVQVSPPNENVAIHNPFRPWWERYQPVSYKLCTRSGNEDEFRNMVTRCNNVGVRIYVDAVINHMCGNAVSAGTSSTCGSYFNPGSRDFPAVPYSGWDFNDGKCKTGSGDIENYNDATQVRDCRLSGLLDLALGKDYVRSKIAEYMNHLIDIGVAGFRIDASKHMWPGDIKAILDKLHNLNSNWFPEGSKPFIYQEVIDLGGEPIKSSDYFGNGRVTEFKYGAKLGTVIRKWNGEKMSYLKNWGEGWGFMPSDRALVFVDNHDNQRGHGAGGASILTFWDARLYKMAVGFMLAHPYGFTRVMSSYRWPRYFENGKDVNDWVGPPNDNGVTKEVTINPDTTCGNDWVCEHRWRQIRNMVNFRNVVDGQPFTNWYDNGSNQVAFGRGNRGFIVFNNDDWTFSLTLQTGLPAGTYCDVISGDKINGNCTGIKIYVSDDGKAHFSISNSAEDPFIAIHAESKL
Procedure: as §1, §2, §3, §4, §5, §6, §7

blood glucose level = assay: Anti-diabetic action: inhibition of rise of blood glucose level after corn starch intake in mice; format: in vivo, mice (Crj:CD-1(ICR)); details: for Significant test (t-test): P value, inhibition of rise of blood glucose level; for Blood glucose level before intake: mice fasted 20 hours, 0 min; for Blood glucose level before intake / Blood glucose level 30 minute after intake: n=5, in mg/dL (unit assumed); for Blood glucose level 30 minute after intake: 30 minutes
Procedure: Commercially available healthy mice (Crj:CD-1(ICR) with body weight of 20.5 to 26.0 g, bred by Japan Charles Liver Co., Ltd.), were used for the test.
The mice were divided into three groups (n=5). After left fasting for 20 hours, the mice of the compound-administered groups were forced to take orally DOG2Az, G2Az and corn starch as saccharide which was made into a liquid state with sterilized distilled water.
Blood was collected from the orbital vein of each mouse before and after the intake of the materials (0 and after 30 minutes), and the amount of glucose in blood was measured to determine the inhibitory effect against the rise of blood glucose level, i.e. anti-diabetic action of the compounds, after intake of corn starch. The inhibitory effect against the rise of blood glucose level was judged by t-test. Glucose concentration in blood was measured by a blood glucose level analyzer “ANTSENSE” (mfd. by Bayer Sankyo Ltd.).

| IC50 [1] [mM] | IC50 [2] [mM] | melting point | SMILES | further results |
| --- | --- | --- | --- | --- |
| 0.026 | 0.028 | – | C[C@H]1O[C@H](O[C@H]2[C@H](O)[C@@H](O)[C@@H](O[C@H]3[C@H](O)[C@@H](O)CNC[C@H]3O)O[C@@H]2CO)[C@H](O)[C@@H](O)[C@@H]1O[C@H]1O[C@H](CO)[C@@H](O)[C@H](O)[C@H]1O [GDOG2Az, (3R, 4R, 5R, 6S)-Hexahydro-3,5,6-trihydroxy-1H-azepine-4-yl O-(α-D-glucopyranosyl)-(1→4)-O-(6-deoxy-α-D-glucopyranosyl)-(1→4)-α-D-glucopyranoside] | – |
| – | – | 144 to 146 °C (dec.) | C[C@H]1O[C@H](O[C@H]2[C@H](O)[C@@H](O)[C@@H](O[C@H]3[C@H](O)[C@@H](O)CNC[C@H]3O)O[C@@H]2CO)[C@H](O)[C@@H](O)[C@@H]1O[C@H]1O[C@H](CO)[C@@H](O)[C@H](O)[C@H]1O (hydrate or solvate) [GDOG2Az, (3R, 4R, 5R, 6S)-Hexahydro-3,5,6-trihydroxy-1H-azepine-4-yl O-(α-D-glucopyranosyl)-(1→4)-O-(6-deoxy-α-D-glucopyranosyl)-(1→4)-α-D-glucopyranoside] | – |
| 0.024 | 0.037 | – | C[C@H]1O[C@H](O[C@H]2[C@H](O)[C@@H](O)[C@@H](O[C@H]3[C@H](O)[C@@H](O)CNC[C@H]3O)O[C@@H]2CO)[C@H](O)[C@@H](O)[C@@H]1O [DOG2Az, (3R, 4R, 5R, 6S)-Hexahydro-3,5,6-trihydroxy-1H-azepine-4-yl O-(6-deoxy-α-D-glucopyranosyl)-(1→4)-α-D-glucopyranoside] | Significant test (t-test) (blood glucose level; 5 mg/kg oral + corn starch 2,000 mg/kg): P < 0.1%; Blood glucose level before intake (blood glucose level; group given 5 mg/kg oral + corn starch 2,000 mg/kg): 101 ± 18; Blood glucose level 30 minute after intake (blood glucose level; mice, 5 mg/kg oral + corn starch 2,000 mg/kg): 136 ± 23; rise of blood glucose level in comparison with the control group (blood glucose level; mice, 5 mg/kg oral + corn starch 2,000 mg/kg, result in words): suppressed significantly |
| 0.043 | 0.082 | – | OCC1OC(OC2C(CO)OC(OC3C(O)CNCC(O)C3O)C(O)C2O)C(O)C(O)C1O (stereo not drawn) [Example G2Az, reference compound] | Significant test (t-test) (blood glucose level; 60 mg/kg oral + corn starch 2,000 mg/kg): P < 1%; Blood glucose level before intake (blood glucose level; group given 60 mg/kg oral + corn starch 2,000 mg/kg): 102 ± 21; Blood glucose level 30 minute after intake (blood glucose level; mice, 60 mg/kg oral + corn starch 2,000 mg/kg): 169 ± 8 |
| – | – | 132 to 134 °C (dec.) | C[C@H]1O[C@H](O[C@H]2[C@H](O)[C@@H](O)[C@@H](O[C@H]3[C@H](O)[C@@H](O)CNC[C@H]3O)O[C@@H]2CO)[C@H](O)[C@@H](O)[C@@H]1O (hydrate or solvate) [DOG2Az, (3R, 4R, 5R, 6S)-Hexahydro-3,5,6-trihydroxy-1H-azepine-4-yl O-(6-deoxy-α-D-glucopyranosyl)-(1→4)-α-D-glucopyranoside] | – |
